In publication PMC7450938, “Prenatal to early postnatal neurotrophic treatment prevents Alzheimer-like behavior and pathology in mice” (Alzheimer's Research & Therapy, 2020):

Key:
[1] = system: NR1, NR2A, NR2B, GluR1, GluR2&3, p-CREB; assay: Western blots of glutamate receptors and CREB in hippocampus; assay type: in vivo, mouse
Description: (§1) We treated 2- to 3-month-old pregnant 3xTg-AD and WT mothers with compound P021 in mouse chow, or with vehicle feed as control at E8 until their offspring/pups reached PND21, at which point the offspring were separated and put on standard mouse chow (Fig. 1). Treatment was administered as 60 nmol peptide/g formulated diet (Research Diets; New Brunswick, NJ, USA). The vehicle-treated control animals received the same diet but without the peptide. On average, each mouse consumed ~ 2.7 g diet/day.
(§2) The tissue from the left cerebral hemisphere from each mouse stored at− 80 °C was homogenized in a Teflon-glass homogenizer to generate 10% (w/v) homogenate. The pre-chilled homogenization buffer contained 50 mM Tris–HCl (pH 7.4), 8.5% sucrose, 2 mM EDTA, 2 mM EGTA, 10 mM β-mercaptoethanol plus the following protease and phosphatase inhibitors: 0.5 mM AEBSF, 10 μg/mL aprotinin, 10 μg/mL leupeptin, 4 μg/mL pepstatin, 5 mM benzamidine, 20 mM β-glycerophosphate, 50 mM sodium fluoride, 1 mM sodium orthovanadate, and 100 nM okadaic acid. Each homogenate was boiled in 2× Laemmli sample buffer for 5 min, and protein concentration was measured by PierceTM 660-nm protein assay (Thermo Scientific; Rockford, IL, USA).
(§3) The samples were subjected to 10% SDS-PAGE and electro-transferred onto Immobilon-P membranes (EMD Millipore; Billerica, MA, USA). The blots were then probed with primary antibodies (Table 1) and developed with the corresponding HRP-conjugated secondary antibody and enhanced chemiluminescence (Pierce Biotechnology, Rockford, IL, USA). Densitometric quantification of protein bands in Western blots was analyzed using Multi Gauge version 3.0 software (FUJIFILM North America; Valhalla, NY, USA).

P-tau (Ser396/404) = assay: PHF-1 immunofluorescence, hippocampal CA1; assay type: in vivo, mouse; conditions: hippocampal CA1 region, 22-month-old 3xTg-AD mice; P021 diet E8-PND21; vs 3xTg-Vh
Description: as §1
The complete right hemisphere was immersion-fixed in 4% paraformaldehyde in 0.1 M PBS for 24–48 h, followed by cryoprotection in a 30% sucrose solution at 4 °C overnight. Later, the 40-μm-thick sagittal sections were cut on a freezing microtome. […]
Immunofluorescence staining was performed on free-floating sections, and every 12th brain section was chosen for densitometry and quantification. For immunohistochemical quantification, six brain sections of four animals per group were analyzed. All stainings for fluorescence-intensity quantification were carried out under identical conditions, including all tissue samples for a particular staining processed at the same time, and experimental and control sections photographed under identical settings. […]

APP = assay: Western blots of p-APP (Thr668) in hippocampus; assay type: in vivo, mouse; conditions: 22-month-old 3xTg-AD mice, normalized with GAPDH, n = 4, P021 diet E8-PND21
Description: as §1
The tissue from the left cerebral hemisphere from each mouse stored at− 80 °C was homogenized in a Teflon-glass homogenizer to generate 10% (w/v) homogenate. […] Each homogenate was boiled in 2× Laemmli sample buffer for 5 min, and protein concentration was measured by PierceTM 660-nm protein assay (Thermo Scientific; Rockford, IL, USA).
The samples were subjected to 10% SDS-PAGE and electro-transferred onto Immobilon-P membranes (EMD Millipore; Billerica, MA, USA). […] Densitometric quantification of protein bands in Western blots was analyzed using Multi Gauge version 3.0 software (FUJIFILM North America; Valhalla, NY, USA).

3xTg-AD mice = conditions: chronic treatment, moderate and severe stages of the pathology; cited from earlier work
Excerpt: (§4) Chronic treatment with P021 ...

aged Fisher rats = conditions: oral administration; cited from earlier work
Excerpt: as §4

Iba-1, GFAP = assay: Western blots of Iba-1 and GFAP in hippocampus; assay type: in vivo, mouse; conditions: for increase of GFAP: 3xTg-AD mice, P021 diet E8-PND21, n = 3-4/group; for expression of Iba-1: among groups
Description: as §1, §2, §3

[2] = system: Ts65Dn trisomic Down syndrome mouse model; conditions: Ts65Dn mice, prenatal to early postnatal treatment; cited from earlier work
Excerpt: The prenatal to early postnatal period is highly susceptible to epigenomic dysregulation with implications for health. […] Stress and hormones, such as glucocorticoids, testosterone, and estradiol, mediate the development of the brain during critical prenatal and early postnatal periods.

tau = assay: Western blots of total and hyperphosphorylated tau in hippocampus; assay type: in vivo, mouse
Description: as §1
The animals were anesthetized with an overdose of sodium pentobarbital (125 mg/kg) and transcardially perfused with 0.1 M phosphate-buffered saline (PBS). After perfusion, the brains were removed from the skull immediately. The left hemisphere was dissected into hippocampus, cerebral cortex, cerebellum, and brain stem; immediately frozen on dry ice; and then stored at − 80 °C for biochemical analysis.
as §2, §3

[3] = 4 months, 3xTg-AD mice, P021 diet E8-PND21, n = 3-4/group
[4] = 22 months, 3xTg-AD mice, P021 diet E8-PND21, n = 3-4/group
[5] = 4-month-old 3xTg-AD mice, P021 diet E8-PND21, vs 3xTg-Vh, n = 4
[6] = 22-month-old 3xTg-AD mice, P021 diet E8-PND21
[7] = 22-month-old 3xTg-AD mice, P021 diet E8-PND21, vs 3xTg-Vh, n = 4

Substance: Ac-DGGL^AG-NH2 [P021, 4-mer CNTF small molecule peptide mimetic to which adamantylated glycine was added at the C-terminal]
- level of GluR1 [1, 3]: increased
- level of NR1 [1, 3]: increased
- level of NR2A [1, 3]: increased
- level of phosphorylated CREB (p-CREB) [1, 3]: increased
- level of GluR2&3 ([1]; 4 months, among groups): no significant changes
- level of NR2B ([1]; 4 months, among groups): no significant changes
- level of NR1 [1, 4]: increased
- level of NR2A [1, 4]: increased
- level of p-CREB [1, 4]: increased
- level of GluR1 ([1]; 22 months, among groups): no significant changes
- level of GluR2 and 3 ([1]; 22 months, among groups): no significant changes
- level of NR2B ([1]; 22 months, among groups): no significant changes
- PHF-1 immunofluorescence, percent area (P-tau (Ser396/404)): attenuated
- level of phosphorylation of APP at Thr668 (APP): rescued
- tau pathology (3xTg-AD mice): significantly reduced
- cognitive aging (aged Fisher rats): could rescue cognitive aging
- increase of GFAP (Iba-1, GFAP; 4 months): rescued
- expression of Iba-1 (Iba-1, GFAP; 4 months): no significant changes
- increase of GFAP (Iba-1, GFAP; 22 months): rescued
- expression of Iba-1 (Iba-1, GFAP; 22 months): no significant changes
- developmental delay and cognitive impairment at adult age [2]: rescues developmental delay and at adult age cognitive impairment
- human-specific tau (antibody 43D) (tau; [5]): decreased
- tau hyperphosphorylation at Ser202/Thr205 (antibody AT8) (tau; [5]): decrease
- total tau (antibody R134d) (tau; [5]): decreased
- human tau (antibody 43D) (tau; [6]): did not change significantly
- hyperphosphorylated tau (antibody pT212) (tau; [6]): did not change significantly
- tau hyperphosphorylation at Ser202/Thr205 (antibody AT8) (tau; [7]): decreased
- tau hyperphosphorylation at Ser-396/404 (antibody PHF-1) (tau; [7]): decreased
- total tau (antibody R134d) (tau; [7]): only an insignificant decrease
